Activity calls are given as the source filed them. The rule behind the calls is not given here.

One data set addresses Human immunodeficiency virus type 1 reverse transcriptase (Human immunodeficiency virus 1) (UniProt Q72547). The experiment in a line: (§1) Inhibition of HIV1 LAI clade B reverse transcriptase RNase H activity by real time monitoring assay.
Conditions: not given
As for `O=C(COC(=O)c1ccccn1)NC12CC3CC(CC(C3)C1)C2`, the result was inactive.

Turning to `O=C(COC(=O)c1ccc([N+](=O)[O-])o1)Nc1ncc(C(F)(F)F)cc1Cl`, the result was Active.

With `O=C(COC(=O)c1ccc([N+](=O)[O-])o1)Nc1nc2ccccc2s1`, the outcome was Active.

Regarding `O=C(COC(=O)c1ccc([N+](=O)[O-])o1)Nc1ccc(Cl)c(S(=O)(=O)N2CCOCC2)c1`, the result was Active.

For the compound `O=C(COC(=O)c1ccc([N+](=O)[O-])o1)Nc1ccc(F)cc1F`, the result was inactive.

For `O=C(COC(=O)c1ccc([N+](=O)[O-])o1)Nc1cc(C(F)(F)F)cc(C(F)(F)F)c1`, the outcome was Active.

With `O=C(COC(=O)c1cncc(Br)c1)NC12CC3CC(CC(C3)C1)C2`, the result was inactive.

`O=C(COC(=O)c1cccnc1Cl)NC12CC3CC(CC(C3)C1)C2`: the outcome was inactive.

Regarding `O=C(COC(=O)c1ccc[nH]1)NC12CC3CC(CC(C3)C1)C2`, the result was inactive.

Consider `CCOC(=O)c1sc(N(Cc2ccccc2)C(=O)COC(=O)c2ccc([N+](=O)[O-])o2)nc1C`, for which the result was inactive.

Consider `O=C1CCC(C(=O)OCC(=O)NC23CC4CC(CC(C4)C2)C3)N1` (centres undefined), for which the result was inactive.

Regarding `Cc1ccc(NC(=O)COC(=O)c2ccc([N+](=O)[O-])o2)cc1S(=O)(=O)N1CCCCCC1`, the outcome was Active.

Consider `Cc1ccc(NC(=O)COC(=O)c2ccc([N+](=O)[O-])o2)cc1`, for which the result was inactive.

For the compound `CCOC(=O)c1c(-c2cccs2)csc1NC(=O)COC(=O)c1ccc([N+](=O)[O-])o1`, the outcome was inactive.

In the case of `O=C(COC(=O)c1ccc([N+](=O)[O-])o1)Nc1ccccc1F`, the result was inactive.

For the compound `CCOC(=O)c1c(NC(=O)COC(=O)c2ccc([N+](=O)[O-])o2)sc(C)c1C`, the outcome was inactive.

Take `CCOc1cc(N2CCOCC2)cc(OCC)c1NC(=O)COC(=O)c1ccc([N+](=O)[O-])o1`: the result was inactive.

In the case of `CN(C)S(=O)(=O)c1cccc(NC(=O)COC(=O)c2ccc([N+](=O)[O-])o2)c1`, the result was Active.

Another data set deals with T1, Human immunodeficiency virus type 1 reverse transcriptase (Human immunodeficiency virus 1, UniProt Q72547). The description is as §1.
Conditions: not given
Compound `O=C(OCC(=O)N(CC1CCCO1)c1nc(-c2ccc(Br)cc2)cs1)c1ccc([N+](=O)[O-])o1` (centres undefined) yielded an IC50 of 26.7 µM.

In turn, `O=C(COC(=O)c1ccc([N+](=O)[O-])o1)NC12CC3CC(CC(C3)C1)C2` had a half-inhibitory concentration (IC50) of 29.6 µM.

A further data set addresses T1, Human immunodeficiency virus type 1 reverse transcriptase. The experiment in a line: Inhibition of HIV1 LAI clade C 93IN101 reverse transcriptase RNase H activity by real time monitoring assay.
Conditions: not given
The compound `O=C(OCC(=O)N(CC1CCCO1)c1nc(-c2ccc(Br)cc2)cs1)c1ccc([N+](=O)[O-])o1` (centres undefined) had an IC50 of 32.2 µM.

`O=C(COC(=O)c1ccc([N+](=O)[O-])o1)NC12CC3CC(CC(C3)C1)C2` registered an IC50 of 26.5 µM.

The next data set shares this target. The experiment in a line: Inhibition of HIV1 LAI CRF01 A_E s93JP-NH1 reverse transcriptase RNase H activity by real time monitoring assay.
Conditions: not given
Further details: species or system 93JP-NH1.
In the case of `O=C(OCC(=O)N(CC1CCCO1)c1nc(-c2ccc(Br)cc2)cs1)c1ccc([N+](=O)[O-])o1` (centres undefined), the IC50 was found to be 2.6 µM.

`O=C(COC(=O)c1ccc([N+](=O)[O-])o1)NC12CC3CC(CC(C3)C1)C2` returned an IC50 of 3.8 µM.

Test system in another data set: not listed separately
The experiment in a line: Inhibition of murine leukemia virus reverse transcriptase by real time monitoring assay.
Conditions: not given
Compound `O=C(OCC(=O)N(CC1CCCO1)c1nc(-c2ccc(Br)cc2)cs1)c1ccc([N+](=O)[O-])o1` (centres undefined) yielded an IC50 of 8.6 µM.

On to `O=C(COC(=O)c1ccc([N+](=O)[O-])o1)NC12CC3CC(CC(C3)C1)C2`, for which it took 8.4 µM to reach half-maximal inhibition (IC50).

For a further data set, the system named is Escherichia coli. The experiment in a line: Inhibition of Escherichia coli RNase H by real time monitoring assay.
Conditions: not given
As to `O=C(OCC(=O)N(CC1CCCO1)c1nc(-c2ccc(Br)cc2)cs1)c1ccc([N+](=O)[O-])o1` (centres undefined), the result was inactive.

As for `O=C(COC(=O)c1ccc([N+](=O)[O-])o1)NC12CC3CC(CC(C3)C1)C2`, the outcome was inactive.

A further data set addresses T2, Ribonuclease H1 (Homo sapiens) (UniProt O60930).
T2 sequence (whole entry): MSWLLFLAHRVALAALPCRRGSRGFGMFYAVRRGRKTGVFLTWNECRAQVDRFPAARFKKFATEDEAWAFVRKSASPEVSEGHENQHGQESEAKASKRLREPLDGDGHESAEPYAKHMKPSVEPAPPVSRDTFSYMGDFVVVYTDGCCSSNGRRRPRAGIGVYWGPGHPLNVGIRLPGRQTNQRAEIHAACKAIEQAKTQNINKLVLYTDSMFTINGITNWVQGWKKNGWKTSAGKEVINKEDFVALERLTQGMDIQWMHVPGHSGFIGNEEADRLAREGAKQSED
The experiment in a line: Inhibition of human RNase H1 by real time monitoring assay.
Conditions: not given
Turning to `O=C(COC(=O)c1ccc([N+](=O)[O-])o1)NC12CC3CC(CC(C3)C1)C2`, the outcome was inactive.

The target of another data set is Human immunodeficiency virus type 1 integrase (Human immunodeficiency virus 1) (UniProt Q7ZJM1). The experiment in a line: Inhibition of HIV1 integrase by real time monitoring assay.
Chain of Human immunodeficiency virus type 1 integrase (Human immunodeficiency virus 1) (Q7ZJM1 as listed by the source): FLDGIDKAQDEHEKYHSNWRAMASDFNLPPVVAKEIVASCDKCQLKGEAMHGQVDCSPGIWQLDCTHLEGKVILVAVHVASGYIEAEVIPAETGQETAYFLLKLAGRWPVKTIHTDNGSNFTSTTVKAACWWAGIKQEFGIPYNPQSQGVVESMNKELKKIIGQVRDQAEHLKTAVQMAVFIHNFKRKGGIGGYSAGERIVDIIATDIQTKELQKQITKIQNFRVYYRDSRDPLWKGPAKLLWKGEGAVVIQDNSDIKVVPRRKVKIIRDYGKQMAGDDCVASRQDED
Conditions: not given
With `O=C(OCC(=O)N(CC1CCCO1)c1nc(-c2ccc(Br)cc2)cs1)c1ccc([N+](=O)[O-])o1` (centres undefined), the result was inactive.

With `O=C(COC(=O)c1ccc([N+](=O)[O-])o1)NC12CC3CC(CC(C3)C1)C2`, the result was inactive.

Test system in the next data set: not listed separately
The experiment in a line: Cytotoxicity against CD4-CXCR4 expressing human NP2 cells at >25 uM by MTT assay. It counts as cell-based.
Conditions: not given
(In general: Tetrazolium assays rely on reduction of a dye to a coloured formazan, in cell work by metabolically active cells.)
Take `O=C(OCC(=O)N(CC1CCCO1)c1nc(-c2ccc(Br)cc2)cs1)c1ccc([N+](=O)[O-])o1` (centres undefined): the Activity worked out at 50%.

Take `O=C(COC(=O)c1ccc([N+](=O)[O-])o1)NC12CC3CC(CC(C3)C1)C2`: the Activity amounted to 50%.

Test system in another data set: not listed separately
The experiment in a line: Cytotoxicity against T cells at >25 uM by MTT assay. The format is cell-based. To be noted: t-cell.
`O=C(OCC(=O)N(CC1CCCO1)c1nc(-c2ccc(Br)cc2)cs1)c1ccc([N+](=O)[O-])o1` (centres undefined) showed an Activity of 50%.

`O=C(COC(=O)c1ccc([N+](=O)[O-])o1)NC12CC3CC(CC(C3)C1)C2`: the Activity worked out at 50%.

Test system in another data set: not listed separately
The experiment in a line: Cytotoxicity against IL2 and anti-CD3-stimulated CD4 expressing primary T cells at 25 to 30 uM by MTT assay. It counts as cell-based. The conditions noted are these: t-cell.
In turn, `O=C(OCC(=O)N(CC1CCCO1)c1nc(-c2ccc(Br)cc2)cs1)c1ccc([N+](=O)[O-])o1` (centres undefined) showed an Activity of 50%.

`O=C(COC(=O)c1ccc([N+](=O)[O-])o1)NC12CC3CC(CC(C3)C1)C2` yielded an Activity of 50%.

Another data set relates to Human immunodeficiency virus 1. The experiment in a line: Inhibition of HIV1 NL4-3 replication in CD4-CXCR4 expressing human NP2 cells assessed as decrease in p24 antigen production after 4 days by ELISA. To be noted: Human immunodeficiency virus 1, NL4-3, NP2, 96 h. On the technique in general: ELISA stands for enzyme-linked immunosorbent assay.
Turning to `O=C(OCC(=O)N(CC1CCCO1)c1nc(-c2ccc(Br)cc2)cs1)c1ccc([N+](=O)[O-])o1` (centres undefined), the IC50 worked out at 22.7 µM.

The test system of the next data set is Human immunodeficiency virus 1. The experiment in a line: Inhibition of HIV1 NL4-3 replication in CD4 expressing human T cells assessed as decrease in p24 antigen production at 25 uM after 4 days by ELISA. It counts as functional, organism-based. To be noted: T-cell.
With `O=C(OCC(=O)N(CC1CCCO1)c1nc(-c2ccc(Br)cc2)cs1)c1ccc([N+](=O)[O-])o1` (centres undefined), the result was Active.

In general, IC50 refers to the concentration that gives 50% inhibition.

Values taken from ChEMBL document CHEMBL1140907, “Derivatives of 5-nitro-furan-2-carboxylic acid carbamoylmethyl ester inhibit RNase H activity associated with HIV-1 reverse transcriptase” (J Med Chem, 2009).
